In patent publication EP0726257A1, “1-(Hetero)Arylvinyl-5H-2,3-benzodiazepine derivatives useful for the treatment of central nervous system disorders, and benzopyrylium intermediates for their preparation” (EGIS GYOGYSZERGYAR RT., priority 1995, dated 1996):
Read-outs that look alike come from different tables or passages of the source.

Tests used:
[1] = test system: Catalepsy in rats; experiment: Cataleptic effect in rats (Morpurgo); format: in vivo; details: p.o.
Experimental: (§1) The cataleptic effect of the compounds was measured both in mice (Schlichtegroll: Arzneim. Forsch., 8, 489, [1958]) and in rats (Morpurgo: Arch. Int. Pharmacodyn., 137, 87, [1962]).

[2] = target: homophthalazine binding site; experiment: Displacement of 3H-girisopam from the homophthalazine binding site in rat brain striatal membrane preparation; details: displacing 5 nM 3H-girisopam
Experimental: Ki values were calculated according to the following equation: Ki = IC50 :(1 +([L])/(KD)), [formula] wherein KD is the dissociation constant of the labelled ligand-receptor complex, [L] is the concentration of the labelled ligand and IC50 is the half maximal inhibitory concentration of the test compound.

[3] = test system: Catalepsy in mice; experiment: Cataleptic effect in mice (Schlichtegroll); format: in vivo; details: p.o.
Experimental: as §1

[4] = test system: spontaneous motor activity of mice; experiment: Inhibition of spontaneous motor activity according to Borsy et al.; format: in vivo; details: Mus musculus, po
Experimental: (§2) The potential antipsychotic activity of 1-[2'-(substituted) vinyl]-5H-2,3-benzodiazepine derivatives according to the invention and of reference substances was tested according to the method of Puech et al. (Psychopharmacology, 75, 84, [1981] by measuring their inhibiting effect on the "climbing" reaction induced by 5,6,6a,7-tetra-(hydro)-6-(methyl)-4H-dibenzo[de,g]quinoline-10,11-di-(ol){apomorphine}. The results have been expressed as ED50 values. Since the inhibition of the spontaneous motor activity (SMA) is an important characteristic of the antipsychotic drugs, the ED50 values of a number of compounds were determined according to the method of Borsy et al. (Arch. Int. Pharmacodyn., 124, 1, 196).
The effect of the 1-[2'-(substituted) vinyl]-5H-2,3-benzodiazepine derivatives according to the invention on the spontaneous motor activity was tested according to the method of Borsy et al. Groups consisting of 3 mice were treated orally with different doses of the compounds to be tested. Then the animals were placed into a 10-channel Dews system equipment, wherein the number of interruptions of infrared beam within 30 minutes was counted. […]

[5] = test system: "climbing" reaction induced by 5,6,6a,7-tetra-(hydro)-6-(methyl)-4H-dibenzo[de,g]quinoline-10,11-di-(ol){apomorphine}; experiment: Inhibition of apomorphine-induced climbing according to Puech et al.; format: in vivo; details: po; read-out: {apomorphine} Climbing ED50
Experimental: as §2

[6] = test system: mice; experiment: Acute toxicity (dead/treated animals) in the Irwin test; format: in vivo
Experimental: (§3) The behavioural effects of 1-[2'-(substituted) vinyl]-5H-2,3-benzodiazepine derivatives according to the invention and of reference substances were measured according to the method of Irwin (Psychopharmacology, 13, 222 [1968]). The results and the acute toxicity data (dead/treated animals, shown in brackets) can be seen in the following Table II
(§4) From the above Table II it can be taken that the 1-[2'-(substituted) vinyl]-5H-2,3-benzodiazepine derivatives according to the invention considerably decrease the spontaneous motor activity (SMA) in mice after intraperitoneal or oral administration.

[7] = test system: spontaneous motor activity (SMA) in mice; experiment: Behavioural effects according to Irwin (decrease in spontaneous motor activity); format: in vivo; parameters: key: ++ strong; + moderate; +- slight decrease in spon-taneous motor activity [SMA]
Experimental: as §3, §4

[8] = test system: rats; experiment: Lick-conflict test (Vogel et al.), anxiolytic activity; format: in vivo; details: Rattus norvegicus, po, rats; read-out: Minimal effective dose [MED] Lick conflict
Source text: (§5) The anxiolytic activity was studied in rats according to the "lick-conflict" test elaborated by Vogel et al. (Psychopharmacology, 21, 1, [1971] and the elevated plus-maze test described by Pellow (Pellow, J.: Neurosci. Meth. 14, 149, [1985]). The antiaggressive effect was investigated in mice using the "fighting behaviour" method of Tedeschi (J. Pharm. Exp. Ther., 125, 28, [1959]). The minimal effective dose (MED) values and the ED50 values obtained are shown in the following Table V.

[9] = test system: rats; experiment: Elevated plus-maze test (Pellow), anxiolytic activity; format: in vivo; details: Rattus norvegicus, po, 1 h; p.o., elevated plus maze, Sprague Dawley rats, 60 minutes pretreatment, significant increase of time spent on open arms; read-out: Minimum effective dose
Source text: as §5
The anxiolytic activity of these compounds was investigated in the elevated plus maze test. Male rats belonging to the Sprague Dawley strain and weighing 220 to 260 g were used as test animals. The test was carried out with the aid of a wooden plus-shaped maze elevated to a height of 50 cm and containing two enclosed and two open arms (50 cm long and 15 cm wide). After 60 minutes pretreatment the animals were placed into the maze and observed for 5 minutes. The drug effect was expressed as percent increase of the time spent on the open arms and number of open arm entries. The minimum effective dose (MED) which caused a significant increase of the time spent on the open arms was calculated for every substance [Pelow, S., Chopin, P., File, S.E., Briley, M.: J. Neurosci. Methods 14, 149 to 167 [1985]).

[10] = 0.5 h, p.o., mice, interruptions of infrared beam within 30 minutes, read-out: ID50 (the source's name)

Structure (SMILES) | Catalepsy in rats Minimal effective dose [MED] [1] [mg/kg] | Ki [2] [nM] | Catalepsy in mice Minimal effective dose [MED] [3] [mg/kg] | acute toxicity (dead/treated animals) ([6]; 300 mg/kg i.p.) | acute toxicity (dead/treated animals) ([6]; 1000 mg/kg p.o.) | Behaviour ([7]; 300 mg/kg i.p.) | Behaviour ([7]; 1000 mg/kg p.o.) | also measured
COc1cc2c(cc1OC)C(C=Cc1ccc3c(c1OC)OCO3)=NN=C(C)C2 [Example 21] | >100 | 8 | >100 | – | – | – | – | –
CN1C(=O)CN=C(c2ccccc2)c2cc(Cl)ccc21 [diazepam, 7-(chloro)-2,3-di-(hydro)-1-(methyl)-5-(phenyl)-1H-1,4-benzodiazepin-2-(one), reference compound] | – | – | – | – | – | – | – | ED50 ([4]; 0.5 h, read-out: ID50): 23 mg/kg
COc1ccc(C=CC2=NN=C(C)Cc3cc(OC)c(OC)cc32)cc1OC [Example 3, 1-[3',4'-Di-(methoxy)-styryl]-4-[methyl]-7,8-di-[methoxy]-5H-2,3-benzodiazepine] | >100 | 11 | 100 | 5/6 | 5/6 | + + | + + | ED50 [5]: 6.7 mg/kg; ED50 ([4]; read-out: Spontaneous motor activity SMA ED50): 8.2 mg/kg; minimal effective dose [8]: 0.1 mg/kg
COc1cc2c(cc1OC)C(C=Cc1ccc(C#N)cc1)=NN=C(C)C2 [Example 57] | >100 | 18 | >100 | – | – | – | – | minimal effective dose [8]: 1 mg/kg
CC1=NN=C(C=Cc2ccc(C(F)(F)F)cc2)c2cc3c(cc2C1)OCO3 [Example 87, 1-[4'-(Trifluoromethyl)-styryl]-4-[methyl]-7,8-[methylenedioxy]-5H-2,3-benzodiazepine] | – | – | – | – | – | – | – | minimal effective dose [9]: 0.1 mg/kg; ED50 [4, 10]: > 100 mg/kg
CC1=NN=C(C=Cc2ccc(F)cc2)c2c(ccc3c2OCO3)C1 [Example 91, 1-[4'-(Fluoro)-styryl]-4-[methyl]-8,9-[methylenedioxy]-5H-2,3-benzodiazepine] | – | – | – | – | – | – | – | ED50 [4, 10]: > 100 mg/kg
COc1cc2c(cc1OC)C(C=Cc1ccccc1F)=NN=C(C)C2 [Example 10] | >100 | 9 | >100 | 0/6 | 0/6 | + | + | minimal effective dose [8]: 3 mg/kg
COc1cc2c(cc1OC)C(C=Cc1cccs1)=NN=C(C)C2 [Example 70] | >100 | 13 | >100 | 2/6 | 0/6 | + + | + | minimal effective dose [8]: 0.3 mg/kg
CC1=NN=C(C=Cc2ccc(F)cc2)c2cc3c(cc2C1)OCO3 [Example 86, 1-[4'-(Fluoro)-styryl]-4-[methyl]-7,8-[methylenedioxy]-5H-2,3-benzodiazepine] | – | – | – | – | – | – | – | minimal effective dose [9]: 0.003 mg/kg; ED50 [4, 10]: > 100 mg/kg
CC1=NN=C(C=Cc2ccc(C#N)cc2)c2cc3c(cc2C1)OCO3 [Example 88, 1-[4'-(Cyano)-styryl]-4-[methyl]-7,8-[methylenedioxy]-5H-2,3-benzodiazepine] | – | – | – | – | – | – | – | ED50 [4, 10]: > 100 mg/kg
CCC1C(C)=NN=C(C=Cc2cccc(Cl)c2)c2cc(OC)c(OC)cc21 (stereo not drawn) [Example 48] | – | 19 | – | 0/5 | 0/5 | + | +- | –
CC1=NN=C(C=Cc2cccc(F)c2)c2cc3c(cc2C1)OCO3 [Example 89, 1-[3'-(Fluoro)-styryl]-4-[methyl]-7,8-[methylenedioxy]-5H-2,3-benzodiazepine] | – | – | – | – | – | – | – | minimal effective dose [9]: 0.3 mg/kg
CCN(CC)c1ccc(C=CC2=NN=C(C)Cc3cc(OC)c(OC)cc32)cc1 [Example 49] | – | 10 | – | 0/5 | 3/5 | + + | + + | –
COc1cc2c(cc1OC)C(C=Cc1ccc(NC(C)=O)cc1)=NN=C(C)C2 [Example 84, 1-[4'-(Acetylamino)-styryl]-4-[methyl]-7,8-di-[methoxy]-5H-2,3-benzodiazepine] | – | 5 | – | 0/5 | 1/5 | + + | + + | ED50 [5]: 11 mg/kg
COc1cc2c(cc1OC)C(C=Cc1cccc(Cl)c1)=NN=C(C)C2 [Example 51] | >100 | 19 | 100 | 0/6 | 0/6 | + | + + | –
CC1=NN=C(C=Cc2ccccc2F)c2cc3c(cc2C1)OCO3 [Example 90, 1-[2'-(Fluoro)-styryl)-4-[methyl]-7,8-[methylenedioxy]-5H-2,3-benzodiazepine] | – | – | – | – | – | – | – | minimal effective dose [9]: 0.3 mg/kg
CC1Cc2cc3c(cc2C(C=Cc2ccc(F)cc2)=NN1)OCO3 (stereo not drawn) [Example 92, 1-[4'-(Fluoro)-styryl]-4-[methyl]-7,8-[methylenedioxy]-3,4-di-[hydro]-5H-2,3-benzodiazepine] | – | – | – | – | – | – | – | minimal effective dose [9]: 1 mg/kg
COc1cc2c(cc1OC)C(C=Cc1ccc3c(c1)OCO3)=NN=C(C)C2 [Example 67] | >100 | 5 | >100 | 0/6 | 0/6 | +- | + | –
COc1cc2c(cc1OC)C(C=Cc1ccccc1C)=NN=C(C)C2 [Example 42] | – | 11 | – | 0/5 | 0/5 | + + | + + | –
